Legend:
[1] = test system: HCT116 human colon carcinoma; experiment: HCT116-e256 study: tumor growth delay of subcutaneous HCT116 xenografts in nude mice; type: in vivo; conditions: for Median TTE (time to endpoint): endpoint 2000 mm^3, control 25.1; for tumor growth delay (TGD): percent of median TTE of untreated group
Experimental: Tumors were measured twice weekly during the experiment, and each animal was euthanized when its tumor reached the endpoint volume of 2000 mm^3 or on the last day of the study (Day 59), whichever came first.
Treatment outcome was assessed by tumor growth delay (TGD), defined as the difference in median time to endpoint tumor burden in a treatment group compared to a control group.
a. Mice. […] The mice were housed on irradiated ALPHA-Dri® Bed-O'Cobs® Laboratory Animal Bedding in static microisolators on a 12-hour light cycle at 21-22° C. (70-72° F.) and 40-60% humidity. Testing facilities complied with the recommendations of the Guide for Care and Use of Laboratory Animals with respect to restraint, husbandry, surgical procedures, feed and fluid regulation, and veterinary care. The animal care and use program at the testing facility is accredited by AAALAC, which assures compliance with accepted standards for the used and care of laboratory animals.
b. Tumor Implantation. […] On the day of tumor implant, the cells were trypsinized, harvested by centrifugation and resuspended in phosphate buffered saline. Each mouse received 5×10^6 HCT116 tumor cells in 0.2 mL implanted subcutaneously in the right flank, and tumor growth was monitored. […] Tumor volume was calculated using the formula: […]
c. Therapeutic Agents. […] The 0.5 mg/mL dosing solution was prepared by 2-fold dilution in distilled water. Both solutions were prepared fresh for each dose administered.
Dosing solutions of 0.75 and 1.5 mg/mL were formulated fresh for each dose by diluting the stock solution ten-fold with D5W.
d. Treatment Plan. […] Note the routes of administration and schedules detailed in Table 10. All doses were given in volumes of 0.2 mL per 20 g of body weight (10 mL/kg), and were scaled to the body weight of the animal.
e. Endpoint. Tumors were measured twice weekly using calipers. Each animal was euthanized when its tumor reached the endpoint size of 2000 mm^3 or at the conclusion of the study on Day 59, whichever came first. The time to endpoint (TTE) for each mouse was calculated from the following equation: […]
where b is the intercept and m is the slope of the line obtained by linear regression of a log-transformed tumor growth data set. The data set was comprised of the first observation that exceeded the study endpoint volume and the three consecutive observations that immediately preceded the attainment of the endpoint volume. […] Animals classified as NTR (non-treatment-related) deaths due to accident (NTRa) or due to unknown causes (NTRu) were excluded from TTE calculations (and all further analyses). Animals classified as TR (treatment-related) deaths or NTRm (non-treatment-related death due to metastasis) were assigned a TTE value equal to the day of death.
Treatment outcome was evaluated by tumor growth delay (TGD), which is defined as the increase in the median time to endpoint (TTE) in a treatment group compared to the control group:
Treatment may cause partial regression (PR) or complete regression (CR) of the tumor in an animal. […] An animal with a CR response at the termination of a study is additionally classified as a tumor-free survivor (TFS). Regression responses were monitored and recorded.
g. Statistical and Graphical Analyses. The Logrank test was used to analyze the significance of the differences between the TTE values of treated and control groups. Two-tailed statistical analyses were conducted at significance level P=0.05.
Median tumor growth curves show group median tumor volumes as a function of time. When an animal exited the study due to tumor size, the final tumor volume recorded for the animal was included with the data used to calculate the group median tumor volume at subsequent time points. Curves were truncated after 50% of the animals in a group had exited the study, or after the second TR death in a group, whichever came first (see the exception in FIG. 8).

[2] = HCT116-e256 study: toxicity (body weight, treatment-related deaths, clinical signs); type: in vivo, nude mice
Text: f. Toxicity. Animals were weighed daily for the first five days of the study and then twice weekly. […] Acceptable toxicity is defined as a group mean body-weight loss of less than 20% during the study and not more than one treatment-related (TR) death among ten treated animals. […] A death was classified as TR if attributable to treatment side effects as evidenced by clinical signs and/or necropsy, or may be classified as TR if due to unknown causes during the dosing period or within 10 days of the last dose. A death was classified as an NTR if there is no evidence that death was related to treatment side effects.

[3] = test system: HCT116 human colon carcinoma; conditions: i.v., qod x5; cited from earlier work
[4] = i.p., qd x5; cited from earlier work
[5] = Groups 2,4,6,8,10: elsamitrucin 10 mg/kg ip q4d x3, paclitaxel 15 mg/kg iv qod x5, cisplatin 2.7 mg/kg ip qd x5
[6] = Groups 3,5,7,9,11: elsamitrucin 5 mg/kg ip q4d x3, paclitaxel 7.5 mg/kg iv qod x5, cisplatin […] ip qd x5

Compound | % TGD = [(T − C)/C] × 100 [1, 5] [%] | No. of CR (complete regression) [1, 5] | No. of PR (partial regression) [1, 5] | No. of TFS (tumor free survivor) [1, 5] | T − C (difference between median TTE of treated versus control group) [1, 5] [days] | Median TTE (time to endpoint) [1, 5] [days] | % TGD = [(T − C)/C] × 100 [1, 6] [%] | No. of CR (complete regression) [1, 6] | No. of PR (partial regression) [1, 6] | No. of TFS (tumor free survivor) [1, 6] | T − C (difference between median TTE of treated versus control group) [1, 6] [days] | Median TTE (time to endpoint) [1, 6] [days] | Day of Mean BW Nadir [2, 5] [days] | Mean BW Nadir (lowest group mean body weight, as % change from Day 1) [2, 5] [%] | No. of NTR (non-treatment-related death) [2, 5] | No. of TR (treatment-related death) [2, 5] | No. of NTR (non-treatment-related death) [2, 6] | No. of TR (treatment-related death) [2, 6] | further results
CC(=O)O[C@H]1C(=O)[C@@]2(C)[C@H]([C@H](OC(=O)c3ccccc3)[C@]3(O)C[C@H](OC(=O)[C@H](O)[C@@H](NC(=O)c4ccccc4)c4ccccc4)C(C)=C1C3(C)C)[C@]1(OC(C)=O)CO[C@@H]1C[C@@H]2O [Paclitaxel, paclitaxel] | 59 | 0 | 1 | 0 | 14.7 | 39.8 | 22 | 0 | 0 | 0 | 5.6 | 30.7 | 7 | −4.6 | 0 | 0 | 0 | 0 | partial regression response ([1]; higher dose level, animals of ten): 1/10; optimum therapeutic dose identified in previous studies [3]: 30 mg/kg
N.N.[Cl][Pt][Cl] [Cisplatin, cisplatin] | 23 | 0 | 0 | 0 | 5.7 | 30.8 | 1 | 0 | 0 | 0 | 0.2 | 25.3 | – | – | – | – | – | – | tumor growth delay (TGD) ([1]; higher dose level): 23%; tumor growth delay (TGD) ([1]; lower dose level): 1%; MTD revealed in previous studies [4]: 2.7 mg/kg
CO[C@@H]1[C@@H](N)[C@@H](O[C@H]2[C@H](Oc3cccc4c(O)c5c(=O)oc6ccc(C)c7c(=O)oc(c34)c5c67)O[C@H](C)[C@H](O)[C@]2(C)O)O[C@H](C)[C@@H]1O [Elsamitrucin, benzo(h)(1)benzopyrano(5,4,3-cde)(1)ebnzopyran-5,12-dione,10((2-O-(2-amino-2,6-dideoxy-3-O-methyl-alpha-D-galactopyranosyl)-6-deoxy-3-C-methyl-beta-D-galactopyranosyl)oxy)-6-hydroxy-1-methyl] | 8 | 0 | 0 | 0 | 2.0 | 27.1 | 6 | 0 | 0 | 0 | 1.4 | 26.5 | 7 | −8.4 | 0 | 0 | 0 | 0 | MTV (n) Day 59 (median tumor volume) ([1]; Groups 2,4,6,8,10: elsamitrucin 10 mg/kg ip q4d x3, paclitaxel 15 mg/kg iv qod x5, animals remaining on Day 59, n in brackets): 88 (1) mm^3; tumor regressions ([1]; elsamitrucin monotherapy groups, 10 or 5 mg/kg i.p. q4d x3): No tumor regressions; Day of Mean BW Nadir [2, 6]: 7 days; Mean BW Nadir (lowest group mean body weight, as % change from Day 1) ([2]; Groups 3,5,7,9,11: elsamitrucin 5 mg/kg ip q4d x3, paclitaxel 7.5 mg/kg iv qod x5, cisplatin […] ip qd x5, — indicates no decrease in mean body weight was observed): −4.8%; group body weight loss ([2]; elsamitrucin 10 mg/kg, in monotherapy and in the combinations): modest group BW losses
